According to patent publication US5789404A, “3-substituted 1-arylindole compounds” (H. Lundbeck A/S, priority 1993, dated 1998):
Where a name gives a salt, the structure may show the parent alone. Read-outs that look alike come from different tables or passages of the source.

Key:
[1] = molecular target: T1, 5-HT2 receptors (Rattus norvegicus, UniProt P14842); assay: Inhibition of ^3 H-Ketanserin Binding to 5-HT2 Receptors in Rat Cortex in vitro
T1 construct: 5-HT2 Receptors in Rat Cortex in vitro; from tissue; host or cells: rat cortex membranes
Procedure: Inhibition of ^3 H-Ketanserin Binding to 5-HT2 Receptors in Rat Cortex in vitro
By this method the inhibition by drugs of the binding of ^3 H-Ketanserin (0,5 nM) to 5-HT2 receptors in membranes from rat is determined in vitro. The method is described in Hyttel, Pharmacol. & Toxicol.

[2] = molecular target: dopamine D2 receptors (Rattus norvegicus, UniProt P61169); assay: biochemical; assay type: binding
Procedure: Inhibition of ^3 H-Spiroperidol Binding to Dopamine D2 Receptors in Rat Corpus Striatum in vitro
By this method the inhibition by drugs of the binding of ^3 H-spiroperidol (0.5 nM) to dopamine D2 receptors in membranes from rat corpus striatum is determined in vitro.

[3] = ^3 H-Ketanserin 0,5 nM, rat cortex membranes, read-out: 5-HT2 binding ^3 H ketanserin, IC50
[4] = ^3 H-spiroperidol 0.5 nM, rat corpus striatum membranes, read-out: Dopamin D2 binding ^3 H spiroperidol, IC50
[5] = read-out: Dopamin D2 binding ^3 H spiroperidol, IC50

T1 sequence (P14842 whole entry): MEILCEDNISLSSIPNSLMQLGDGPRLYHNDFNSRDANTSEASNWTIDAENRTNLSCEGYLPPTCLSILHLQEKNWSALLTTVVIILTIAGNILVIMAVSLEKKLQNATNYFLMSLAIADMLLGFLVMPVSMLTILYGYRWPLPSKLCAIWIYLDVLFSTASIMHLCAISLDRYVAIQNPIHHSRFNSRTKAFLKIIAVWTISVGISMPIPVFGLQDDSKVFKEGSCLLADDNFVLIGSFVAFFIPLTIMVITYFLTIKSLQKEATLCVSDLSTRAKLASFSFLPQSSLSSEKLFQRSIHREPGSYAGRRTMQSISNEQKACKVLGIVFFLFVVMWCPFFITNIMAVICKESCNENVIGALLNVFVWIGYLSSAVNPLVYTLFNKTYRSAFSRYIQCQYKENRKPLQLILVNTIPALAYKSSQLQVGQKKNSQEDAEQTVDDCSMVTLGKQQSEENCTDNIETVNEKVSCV
dopamine D2 receptors, sequence (P61169 whole entry): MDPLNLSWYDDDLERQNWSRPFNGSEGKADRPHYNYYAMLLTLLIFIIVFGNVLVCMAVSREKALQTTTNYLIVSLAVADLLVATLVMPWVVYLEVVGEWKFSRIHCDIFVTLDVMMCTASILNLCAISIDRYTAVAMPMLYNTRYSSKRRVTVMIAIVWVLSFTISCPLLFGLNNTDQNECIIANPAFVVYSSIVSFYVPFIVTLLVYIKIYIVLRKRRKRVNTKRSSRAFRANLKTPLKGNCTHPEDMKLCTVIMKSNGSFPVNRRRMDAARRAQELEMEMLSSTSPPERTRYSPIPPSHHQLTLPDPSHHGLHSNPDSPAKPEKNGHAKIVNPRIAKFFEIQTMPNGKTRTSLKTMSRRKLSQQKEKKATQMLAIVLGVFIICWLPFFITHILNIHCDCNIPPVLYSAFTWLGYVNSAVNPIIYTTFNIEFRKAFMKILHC

Row | Compound | IC50 [1, 3] [nM] | IC50 [2, 4] [nM] | IC50 [2, 5] [nM] | other results
1 | 5-Chloro-1-(4-fluorophenyl)-3-[3-(4-piperidinyl)propyl]-1H-indole hydrochloride [Compound 3d] | 110 | 21 |  | 
2 | CN1CCCC1COc1cn(-c2ccc(F)cc2)c2ccc(Cl)cc12 (stereo in doubt) [Compound 7b, (S)-1-Methyl-2-pyrrolidinylmethoxy-5-chloro-1-(4-fluorophenyl)-1H-indole oxalate] |  | 18 |  | IC50 ([1]; read-out: 5-HT2 binding ^3 H ketanserin, IC50, ^3 H-Ketanserin 0,5 nM, rat cortex membranes): 8.2 nM
3 | CN(C)CCCc1cn(-c2ccc(F)cc2)c2ccc(Cl)cc12 [Compound 3a, N,N-Dimethyl-3-[5-chloro-1-(4-fluorophenyl)-3-1H-indolyl]propylamine fumarate] | 19 | 42 |  | 
4 | CN(CCCc1cn(-c2ccc(F)cc2)c2ccc(Cl)cc12)CCN1CCNC1=O [Compound 3b, 1-[2-[[3-[5-chloro-1-(4-fluorophenyl)-3-1H-indolyl]propyl]methylamino]ethyl]-2-imidazolidinone fumarate] | 7.8 | 190 |  | 
5 | Fc1ccc(-n2cc(CCCN3CCOCC3)c3cc(Cl)ccc32)cc1 [Compound 3c, 5-Chloro-1-(4-fluorophenyl)-3-[3-(4-morpholinyl)propyl]-1H-indole maleate] | 310 | 26 |  | 
6 | CN(C)CCOc1cn(-c2ccc(F)cc2)c2ccc(Cl)cc12 [Compound 4a, N,N-Dimethyl-2-[5-chloro-1-(4-fluorophenyl)-3-1H-indolyloxy]ethylamine sesqui fumarate] | 4.2 | 2.9 |  | 
7 | CN(CCOc1cn(-c2ccc(F)cc2)c2ccc(Cl)cc12)CCN1CCNC1=O [Compound 4b, 1-[2-[[2-[5-chloro-1-(4-fluorophenyl)-3-1H-indolyloxy]ethyl]methylamino]ethyl]-2-imidazolidinone Maleate] | 0.88 | 5.8 |  | 
8 | C#CCN(CCOc1cn(-c2ccc(F)cc2)c2ccc(Cl)cc12)CCN1CCNC1=O [Compound 4d, 1-[2-[[2-[5-Chloro-1-(4-fluorophenyl)-3-1H-indolyloxy]ethyl](3-propynyl)amino]ethyl]-2-imidazolidinone oxalate] | 220 | 190 |  | 
9 | Fc1ccc(-n2cc(OCCN3CCCCC3)c3cc(Cl)ccc32)cc1 [Compound 4e, 5-Chloro-1-(4-fluorophenyl)-3-[2-(1-piperidinyl)ethoxy]-1H-indole] | 5.9 | 2.3 |  | 
10 | Fc1ccc(-n2cc(OCCN3CCOCC3)c3cc(Cl)ccc32)cc1 [Compound 4f, 5-Chloro-1-(4-fluorophenyl)-3-[2-(4-morpholinyl)ethoxy]-1H-indole maleate] | 48 | 27 |  | 
11 | CN(CCOc1cn(-c2ccc(F)cc2)c2cc(Cl)ccc12)CCN1CCNC1=O [Compound 4h, 1-[2-[[2-[6-chloro-1-(4-fluorophenyl)-3-1H-indolyloxy]ethyl]methylamino]ethyl]-2-imidazolidinone] | 2 | 200 |  | 
12 | CC(C)N1CCN(CCN(C)CCOc2cn(-c3ccc(F)cc3)c3cc(Cl)ccc23)C1=O [Compound 4i, 1-[2-[[2-[6-Chloro-1-(4-fluorophenyl)-3-1H-indolyloxy]ethyl]methylamino]ethyl]-3-(2-propyl)-2-imidazolidinone oxalate] | 6.3 |  | 120 | 
13 | CN(C)CCOc1cn(-c2ccc(F)cc2)c2cc(Cl)ccc12 [Compound 4j, N,N-Dimethyl-2-[6-chloro-1-(4-fluorophenyl)-3-1H-indolyloxy]ethylamine] | 17 | 63 |  | 
14 | O=C1NCCN1CCC1CCN(CCOc2cn(-c3ccc(F)cc3)c3ccc(Cl)cc23)CC1 [Compound 4k, 1-[2-[1-[2-[5-Chloro-1-(4-fluorophenyl)-3-1H-indolyloxy]ethyl]-4-piperidinyl]ethyl]-2-imidazolidinone] | 21 | 2.6 |  | 
15 | CNC(=O)C1CCN(CCOc2cn(-c3ccc(F)cc3)c3ccc(Cl)cc23)CC1 [Compound 4n, N-methyl-1-[2-[5-chloro-1-(4-fluorophenyl)-3-1H-indolyloxy]ethyl]4-piperidinecarboxamide] | 28 | 4.7 |  | 
16 | Fc1ccc(-n2cc(OCCN3CCCC3)c3ccc(Cl)cc32)cc1 [Compound 4o, 6-Chloro-1-(4-fluorophenyl)-2-(1-pyrrolidinyl)ethoxy-1H-indole] |  | 23 |  | IC50 [1]: 30 nM
17 | Fc1ccc(-n2cc(OCCN3CCCCC3)c3ccc(Cl)cc32)cc1 [Compound 4p, 6-Chloro-1-(4-fluorophenyl)-2-(1-piperidinyl)ethoxy-1H-indole] |  | 17 |  | IC50 [1]: 35 nM
18 | CN(C)CCSc1cn(-c2ccc(F)cc2)c2ccc(Cl)cc12 [Compound 4q, N,N-Dimethyl-2-[5-chloro-1-(4-fluorophenyl)-3-1H-indolylthio]ethylamine hydrochloride] | 43 |  | 140 | 

Row | Compound | IC50 [1, 3] [nM] | IC50 [2, 4] [nM] | IC50 [2, 5] [nM] | other results
19 | CN(CCSc1cn(-c2ccc(F)cc2)c2ccc(Cl)cc12)CCN1CCNC1=O [Compound 4r, 1-[2-[[2-[5-Chloro-1-(4-fluorophenyl)-3-1H-indolylthio]ethyl]methylamino]ethyl]-2-imidazolidinone] | 86 |  |  | IC50 [2]: 770 nM
20 | CN(CCN1CCNC1=O)Cc1cn(-c2ccc(F)cc2)c2ccc(Cl)cc12 [Compound 4s, 1-[2-[[5-chloro-1-(4-fluorophenyl)-3-1H-indolylmethyl]methylamino]ethyl]-2-imidazolidinone] | 20 | 22 |  | 
21 | CN(CCCN1CCNC1=O)CCc1cn(-c2ccc(F)cc2)c2ccc(Cl)cc12 [Compound 4u, 1-[3-[[2-[5-chloro-1-(4-fluorophenyl)-3-1H-indolyl]ethyl]methylamino]propyl]-2-imidazolidinone hydrochloride] | 1 |  | 19 | 
22 | CN(CCc1cn(-c2ccc(F)cc2)c2ccc(Cl)cc12)CCN1CCNC1=O [Compound 4v, 1-[2-[[2-[5-chloro-1-(4-fluorophenyl)-3-1H-indolyl]ethyl]methylamino]ethyl]-2-imidazolidinone maleate] | 5.3 | 25 |  | 
23 | C[C@@H](COc1cn(-c2ccc(F)cc2)c2ccc(Cl)cc12)N(C)C [Compound 6a, (S)-N, N-Dimethyl-2-[5-chloro-1-(4-fluorophenyl) -3-1H-indolyloxy]-1-methylethylamine Oxalate] | 7.4 |  | 5.5 | 
24 | C[C@H](COc1cn(-c2ccc(F)cc2)c2ccc(Cl)cc12)N(C)C [Compound 6b, (R)-N,N-Dimethyl-2-[5-chloro-1-(4-fluorophenyl)-3-1H-indolyloxy]-1-methylethylamine oxalate] | 21 |  | 37 | 
25 | CN(C)C(C)(C)COc1cn(-c2ccc(F)cc2)c2ccc(Cl)cc12 [Compound 6c, N,N-Dimethyl-1,1-dimethyl-2-[5-chloro-1-(4-fluorophenyl)-3-1H-indolyloxy]ethylamine oxalate] | 42 |  | 330 | 
26 | CN1CCC[C@H]1COc1cn(-c2ccc(F)cc2)c2ccc(Cl)cc12 [Compound 7a, (S)-1-Methyl-2-pyrrolidinylmethoxy-5-chloro-1-(4-fluorophenyl)-1H-indole Oxalate] | 18 | 30 |  | 
27 | O=C1NCCN1CCN1CCC[C@@H]1COc1cn(-c2ccc(F)cc2)c2ccc(Cl)cc12 [Compound 8a, (R)-1-[2-[2-[5-Chloro-1-(4-fluorophenyl)-3-1H-indolyloxymethyl]-1-pyrrolidinyl]ethyl]-2-imidazolidinone Oxalate] | 49 |  | 8.1 | 
28 | C[C@@H](CN(C)CCOc1cn(-c2ccc(F)cc2)c2ccc(Cl)cc12)N1CCNC1=O [Compound 8b, (S)-1-[1-methyl-2-[[2-[5-chloro-1-(4-fluorophenyl)-3-1H-indolyloxy]ethyl]methylamino]ethyl]-2-imidazolidinone oxalate] | 220 |  | 35 | 
29 | CN(C)CCOc1c(CO)n(-c2ccc(F)cc2)c2ccc(Cl)cc12 [Compound 9a, N,N-Dimethyl-2-[5-chloro-1-(4-fluorophenyl)-2-hydroxymethyl-3-1H-indolyloxy]ethylamine Hydrochloride] |  |  | 430 | IC50 [1]: 38 nM
30 | Cc1c(OCCN(C)C)c2cc(Cl)ccc2n1-c1ccc(F)cc1 [Compound 10, N,N-Dimethyl-2-[5-chloro-1-(4-fluorophenyl)-2-methyl-3-1H-indolyloxy]ethylamine Oxalate] | 11 |  | 83 | 
31 | CN(C)Cc1cn(-c2ccc(F)cc2)c2ccc(Cl)cc12 [Compound 13a, N,N-Dimethyl-[5-chloro-1-(4-fluorophenyl)-3-1H-indolyl]methylamine Maleate] | 12 | 19 |  | 
32 | CNCc1cn(-c2ccc(F)cc2)c2ccc(Cl)cc12 [Compound 13b, N-methyl-[5-chloro-1-(4-fluorophenyl)-3-1H-indolylmethyl]amine hydrochloride] | 21 |  | 33 | 
33 | CN(C)CCc1cn(-c2ccc(F)cc2)c2ccc(Cl)cc12 [Compound 14b, N,N-Dimethyl-2-(5-chloro-1-(4-fluorophenyl)-3-1H-indolyl)ethylamine maleate] | 8.9 |  | 38 | 
34 | Fc1ccc(-n2cc(CCN3CCOCC3)c3cc(Cl)ccc32)cc1 [Compound 14c, 5-chloro-1-(4-fluorophenyl)-3-(2-(4-morpholinyl)ethyl)-1H-indole fumarate] | 22 |  |  | IC50 [2]: 54 nM
35 | CNCCc1cn(-c2ccc(F)cc2)c2ccc(Cl)cc12 [Compound 15a, N-methyl-2-(5-chloro-1-(4-fluorophenyl)-3-1H-indolyl)ethylamine Maleate] | 17 |  |  | IC50 [2]: 24 nM
